Here are results for two molecules from PMC10077549 (ACS Omega, 2023).

This experiment deals with T1, soybean lipoxygenase LOX-1 (Glycine max, UniProt P08170).
T1 sequence (P08170 1-839): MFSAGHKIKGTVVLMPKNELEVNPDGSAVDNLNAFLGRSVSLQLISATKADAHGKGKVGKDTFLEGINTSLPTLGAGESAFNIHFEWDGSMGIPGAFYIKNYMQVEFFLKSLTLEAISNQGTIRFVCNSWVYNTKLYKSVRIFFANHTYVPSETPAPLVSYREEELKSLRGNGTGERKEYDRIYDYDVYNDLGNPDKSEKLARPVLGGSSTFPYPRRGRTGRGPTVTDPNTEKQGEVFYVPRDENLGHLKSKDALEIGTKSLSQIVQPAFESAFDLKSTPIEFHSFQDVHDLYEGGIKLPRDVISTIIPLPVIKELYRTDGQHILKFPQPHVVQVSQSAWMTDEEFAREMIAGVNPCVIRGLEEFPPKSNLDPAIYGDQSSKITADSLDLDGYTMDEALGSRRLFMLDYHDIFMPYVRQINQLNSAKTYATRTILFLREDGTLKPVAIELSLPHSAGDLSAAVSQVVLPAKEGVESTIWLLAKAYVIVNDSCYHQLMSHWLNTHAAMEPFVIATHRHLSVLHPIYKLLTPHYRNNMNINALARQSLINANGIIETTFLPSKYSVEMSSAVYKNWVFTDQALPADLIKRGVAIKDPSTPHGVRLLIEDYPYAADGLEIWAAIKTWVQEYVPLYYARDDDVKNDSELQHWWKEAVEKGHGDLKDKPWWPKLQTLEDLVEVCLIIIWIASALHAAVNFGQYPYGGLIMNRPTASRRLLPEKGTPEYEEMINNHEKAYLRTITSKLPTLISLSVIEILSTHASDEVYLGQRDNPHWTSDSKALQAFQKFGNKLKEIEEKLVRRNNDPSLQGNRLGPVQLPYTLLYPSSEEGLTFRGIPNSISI
It counts as biochemical.

What is called IC50 is the concentration at which inhibition is half-maximal. Low readings indicate higher potency, high ones lower potency. `NNC(=S)N/N=C/c1ccccc1` [DKI5, (E)-N′-benzylidenehydrazinecarbothiohydrazide] came in with an IC50 of 22.5 µM.
Then `SC1=NC(c2ccccc2)=CC(c2ccccc2)N1` (centres unmarked) [KKII5, 4,6-diphenyl-3,4-dihydropyrimidine-2(1H)-thione], with 19 µM.
